We go through 28 compounds from patent US12377100B2 (GILEAD SCIENCES, INC., priority 2015, dated 2025).

SMILES strings stand for the structures.

As a reminder, the AC50 is the midpoint of the concentration-response curve, whichever way the signal moves. A lower AC50 goes with greater potency.

Common to all, as to type: cell-based
What all share (settings): human PBMCs, 24 hours incubation

The test system of experiment [1] is TNFα. As to the kind of experiment: PBMC cytokine profiling assay, TNFα induction. The method, then:
(§1) Certain compounds disclosed herein we tested according to the procedure described below. Additionally, certain reference compounds were prepared and tested along with the compounds of the present disclosure.
(§2) Compounds were dissolved and stored in DMSO (Sigma-Aldrich, St. Louis, MO) at 10 mM concentration.
(§3) Cryopreserved human PBMCs isolated from healthy donors were purchased from StemCell Technologies (Vancouver, Canada). Cell culture medium used was RPMI with L-Glutamine (Mediatech, Manassas, VA) supplemented with 10% fetal bovine serum (Hyclone, GE Healthcare, Logan, UT) and Penicillin-Streptomycin (Mediatech). Human TNFα, IL12p40, and IFNα2a 384-well Assay capture plates, standards, buffers and processing reagents were obtained from MesoScale Discovery Technologies (MSD; Rockville, MD).
(§4) Cryopreserved human PBMCs (1×10e8 cells/ml) were thawed at 37° C. and resuspended in 25 mL warm cell culture medium. The cells were pelleted at 200×g (Beckman Avanti J-E) for 5 min and resuspended in 20 mL of fresh culture media. Cells were counted using a Cellometer (Nexcelcom Bioscience), adjusted to 2×10e6 cells, and incubated for 2 hours in an incubator set at 37° C., 5% CO2 to recover from cryopreservation. Compounds were serially diluted in DMSO at half-log steps to generate a 10-point dose range. Using a Bravo pipette equipped with a 384 well head (Agilent), 0.4 μL of compound was transferred to each well of a 384 well black, clear bottom plate (Greiner Bio-One, Germany) containing 30 μL of cell culture medium. Recovered PBMCs were then dispensed into the assay plate at 50 μL per well (100k cells/well) using the MicroFlow multichannel dispenser (Biotek). Final DMSO concentration was 0.5%. DMSO was used as the negative control. The plates were incubated for 24 hours at 37° C. PBMCs in the assay plate were pelleted by centrifugation (Beckman Avanti J-E) at 200×g for 5 min.
(§5) Using a Biomek FX 384 well pipetting station (Beckman), conditioned culture medium (CCM) from the assay plate was transferred to MSD capture plates customized for each cytokine. For IFNα and IL12-p40 detection, 25 μL and 20 μL of CCM were added directly to each capture plate, respectively. For TNFα detection, CCM was diluted 1:9 in fresh culture medium, and 20 μL of diluted CCM was used. Serially diluted calibration standards for each cytokine were used to generate standard curves and establish assay linearity. The plates were sealed and incubated overnight at 4° C. in a plate shaker (Titer Plate) set at 200 rpm. On the following day, antibodies specific for each cytokine were diluted 1:50 in MSD Diluent 100 antibody dilution buffer. Diluted antibodies were added to corresponding capture plates at 10 μL/well, and incubated at RT for 1-2 hrs in the shaker. The plates were washed with PBST buffer (3×, 60 μl/well) using a Biotek Multiflow plate washer. MSD Read Buffer diluted to 2× in deionized water and 35 μL/well was added via Biomek FX instrument. The plates were read immediately in a MSD6000 reader. Data were normalized to positive and negative controls in each assay plate. AC50 values represent compound concentrations at half-maximal effect based on normalized percent activation and calculated by non-linear regression using Pipeline Pilot software (Accelrys, San Diego, CA).

Experiment [2] concerns IL12p40. The experiment is described as follows: PBMC cytokine profiling assay, IL12-p40 induction. The method, then: as §1, §2, §3, §4, §5
In experiment [3] the test system is IFNα. As to the kind of experiment: PBMC cytokine profiling assay, IFNα induction. How it is done:
as §1, §2, §3, §4, §5

With `CCCCNc1nc(N)nc2cc(Cl)cnc12` [Example 41, N^4-butyl-7-chloropyrido[3,2-d]pyrimidine-2,4-diamine], the AC50 in experiment [1] (Homo sapiens, PBMC, 24 h) was 11 µM; in experiment [2] (Homo sapiens, PBMC, 24 h) it was 9.1 µM; in experiment [3] (Homo sapiens, PBMC, 24 h), 13 µM.
With `CCCC[C@@H](Nc1nc(N)nc2cccnc12)[C@H](C)O` [Example 86], the figures for the AC50 in experiment [1], in experiment [2] and in experiment [3] were 2.9 µM, 2.4 µM and 37.4 µM, respectively.
Consider `CCCC[C@@H](Nc1nc(N)nc2cc(F)cnc12)[C@H](C)O` [Example 87, (2S,3R)-3-((2-amino-7-fluoropyrido[3,2-d]pyrimidin-4-yl)amino)heptan-2-ol], for which the AC50 in experiment [1] (Homo sapiens, PBMC, 24 h) was 5 µM; in experiment [2] (Homo sapiens, PBMC, 24 h), 4.5 µM; in experiment [3] (Homo sapiens, PBMC, 24 h) it was over 50 µM.
The corresponding values for `CCCCC(CC)(CO)Nc1nc(N)nc2cccnc12` (stereo not drawn) [Example 85, 2-((2-aminopyrido[3,2-d]pyrimidin-4-yl)amino)-2-ethylhexan-1-ol] are 0.86 µM, 0.8 µM and 4 µM.
The corresponding values for `CCC[C@](C)(CO)Nc1nc(N)nc2cccnc12` [Example 80, (R)-2-((2-aminopyrido[3,2-d]pyrimidin-4-yl)amino)-2-methylpentan-1-ol] are 2.7 µM, 2.4 µM and over 50 µM.
As to `CCCCCNc1nc(N)nc2cccnc12` [Example 11, N^4-pentylpyrido[3,2-d]pyrimidine-2,4-diamine], the concentration at half-maximal activity (AC50) in experiment [1] (Homo sapiens, PBMC, 24 h) worked out at 10.1 µM; in experiment [2] (Homo sapiens, PBMC, 24 h), 6 µM; in experiment [3] (Homo sapiens, PBMC, 24 h), 6.9 µM.
With `CCCCC[C@](C)(CNC(C)=O)Nc1nc(N)nc2cc(Cl)cnc12` [Example 117, (R)—N-(2-((2-amino-7-chloropyrido[3,2-d]pyrimidin-4-yl)amino)-2-methylheptyl)acetamide], the AC50 in experiment [1] (Homo sapiens, PBMC, 24 h) was 0.37 µM; in experiment [2] (Homo sapiens, PBMC, 24 h), 0.33 µM; in experiment [3] (Homo sapiens, PBMC, 24 h) it was over 50 µM.
The corresponding values for `CCC[C@@H](CO)Nc1nc(N)nc2cc(C#N)cnc12` [Example 22, (S)-2-amino-4-((1-hydroxypentan-2-yl)amino)pyrido[3,2-d]pyrimidine-7-carbonitrile] are over 50 µM, over 50 µM and 35.9 µM.
Take `CCCC[C@@](C)(Nc1nc(N)nc2cc(F)cnc12)C(C)O` (single isomer, unassigned) [Example 94]: the figures for the AC50 in experiment [1], in experiment [2] and in experiment [3] were 1 µM, 0.7 µM and 2.2 µM, respectively.
As for `CCCC[C@H](CO)Nc1nc(N)nc2cc(Cl)cnc12` [Example 23C, (R)-2-((2-amino-7-chloropyrido[3,2-d]pyrimidin-4-yl)amino)hexan-1-ol], the AC50 was 24.7 µM in experiment [1] (Homo sapiens, PBMC, 24 h); 25.7 µM in experiment [2] (Homo sapiens, PBMC, 24 h); over 50 µM in experiment [3] (Homo sapiens, PBMC, 24 h).
Take `Nc1nc(N[C@@H](CO)CCCCF)c2ncccc2n1` [Example 74, (R)-2-((2-aminopyrido[3,2-d]pyrimidin-4-yl)amino)-6-fluorohexan-1-ol]: the AC50 in experiment [1] (Homo sapiens, PBMC, 24 h) is 9.1 µM; in experiment [2] (Homo sapiens, PBMC, 24 h), 9.6 µM; in experiment [3] (Homo sapiens, PBMC, 24 h), over 50 µM.
In the case of `CCCC[C@](C)(CO)Nc1nc(N)nc2cc(F)cnc12` [Example 98, (R)-2-((2-amino-7-fluoropyrido[3,2-d]pyrimidin-4-yl)amino)-2-methylhexan-1-ol], the AC50 in experiment [1] (Homo sapiens, PBMC, 24 h) turned out to be 0.24 µM; in experiment [2] (Homo sapiens, PBMC, 24 h), 0.23 µM; in experiment [3] (Homo sapiens, PBMC, 24 h), 134 µM.
With `CCCCC(Nc1nc(N)nc2cccnc12)C(C)O` (stereo not drawn) [Example 103, 3-((2-aminopyrido[3,2-d]pyrimidin-4-yl)amino)heptan-2-ol], the half-maximal activity concentration (AC50) in experiment [1] (Homo sapiens, PBMC, 24 h) was 3.3 µM; in experiment [2] (Homo sapiens, PBMC, 24 h) it was 2.6 µM; in experiment [3], 10.3 µM.
Consider `CCCC[C@@H](CO)Nc1nc(N)nc2cc(F)cnc12` [Example 45, (S)-2-((2-amino-7-fluoropyrido[3,2-d]pyrimidin-4-yl)amino)hexan-1-ol], for which the AC50 in experiment [1] (Homo sapiens, PBMC, 24 h) is 1.6 µM; in experiment [2] (Homo sapiens, PBMC, 24 h), 1.3 µM; in experiment [3] (Homo sapiens, PBMC, 24 h), 8.3 µM.
The corresponding values for `CCCC[C@H](CO)Nc1nc(N)nc2cc(CC)cnc12` [Example 71, (R)-2-((2-amino-7-ethylpyrido[3,2-d]pyrimidin-4-yl)amino)hexan-1-ol] are 2.6 µM, 2.7 µM and over 50 µM.
On to `CCCC[C@@H](CO)Nc1nc(N)nc2ccccc12` [Example 48, (S)-2-((2-aminoquinazolin-4-yl)amino)hexan-1-ol], for which the AC50 is 0.85 µM in experiment [1] (Homo sapiens, PBMC, 24 h); 0.71 µM in experiment [2] (Homo sapiens, PBMC, 24 h); 0.57 µM in experiment [3] (Homo sapiens, PBMC, 24 h).
As to `CCC[C@@H](CO)Nc1nc(N)nc2ccc(C)nc12` [Example 33, (S)-2-((2-amino-6-methylpyrido[3,2-d]pyrimidin-4-yl)amino)pentan-1-ol], the AC50 was 0.92 µM in experiment [1] (Homo sapiens, PBMC, 24 h); 0.85 µM in experiment [2] (Homo sapiens, PBMC, 24 h); 5.9 µM in experiment [3] (Homo sapiens, PBMC, 24 h).
For `CCCC[C@@H](CO)Nc1nc(N)nc2ccc(C)nc12` [Example 40C, (S)-2-((2-amino-6-methylpyrido[3,2-d]pyrimidin-4-yl)amino)hexan-1-ol], in that order: 0.94 µM, 0.87 µM and 2.4 µM.
For `CCC[C@H](Nc1nc(N)nc2cccnc12)C(N)=O` [Example 30B, (S)-2-((2-aminopyrido[3,2-d]pyrimidin-4-yl)amino)pentanamide], in that order: 10.6 µM, 8.6 µM and over 50 µM.
For `C=CC[C@](C)(CO)Nc1nc(N)nc2cccnc12` [Example 81, (R)-2-((2-aminopyrido[3,2-d]pyrimidin-4-yl)amino)-2-methylpent-4-en-1-ol], the AC50 was 7.6 µM in experiment [1] (Homo sapiens, PBMC, 24 h); 7.8 µM in experiment [2] (Homo sapiens, PBMC, 24 h); over 50 µM in experiment [3] (Homo sapiens, PBMC, 24 h).
Regarding `CC(F)(F)CC[C@H](CO)Nc1nc(N)nc2cccnc12` [Example 78, (R)-2-((2-aminopyrido[3,2-d]pyrimidin-4-yl)amino)-5,5-difluorohexan-1-ol], the concentration at half-maximal activity (AC50) was 16 µM in experiment [1] (Homo sapiens, PBMC, 24 h); 14.2 µM in experiment [2] (Homo sapiens, PBMC, 24 h); over 50 µM in experiment [3] (Homo sapiens, PBMC, 24 h).
For `CCCC[C@H](CO)Nc1nc(N)nc2cc(F)c(F)cc12` [Example 46C, (R)-2-((2-amino-6,7-difluoroquinazolin-4-yl)amino)hexan-1-ol], in that order: 28.6 µM, 28.5 µM and over 50 µM.
Take `CSCC[C@@H](CO)Nc1nc(N)nc2cccnc12` [Example 10, (S)-2-((2-aminopyrido[3,2-d]pyrimidin-4-yl)amino)-4-(methylthio)butan-1-ol]: the AC50 was 29.2 µM in experiment [1] (Homo sapiens, PBMC, 24 h); 23.8 µM in experiment [2] (Homo sapiens, PBMC, 24 h); over 50 µM in experiment [3] (Homo sapiens, PBMC, 24 h).
Regarding `CCCCNc1nc(N)nc2c(C)ccnc12` [Example 25E, N^4-butyl-8-methylpyrido[3,2-d]pyrimidine-2,4-diamine], the AC50 in experiment [1] (Homo sapiens, PBMC, 24 h) was found to be 20 µM; in experiment [2] (Homo sapiens, PBMC, 24 h) it was 19.7 µM; in experiment [3] (Homo sapiens, PBMC, 24 h), 12.3 µM.
Take `CCCC[C@](C)(Nc1nc(N)nc2cccnc12)C(C)O` (single isomer, unassigned) [Example 92]: the AC50 in experiment [1] (Homo sapiens, PBMC, 24 h) was 4.3 µM; in experiment [2] (Homo sapiens, PBMC, 24 h), 4.7 µM; in experiment [3] (Homo sapiens, PBMC, 24 h) it was over 50 µM.
The corresponding values for `CCCC[C@@H](CO)Nc1nc(N)nc2c(C)ccnc12` [Example 58, (S)-2-((2-amino-8-methylpyrido[3,2-d]pyrimidin-4-yl)amino)hexan-1-ol] are 3.9 µM, 3.8 µM and 4.1 µM.
With `CCC[C@H](Nc1nc(N)nc2cccnc12)C(=O)NCc1ccccn1` [Example 37, (S)-2-((2-aminopyrido[3,2-d]pyrimidin-4-yl)amino)-N-(pyridin-2-ylmethyl)pentanamide], the AC50 in experiment [1] (Homo sapiens, PBMC, 24 h) was over 50 µM; in experiment [2] (Homo sapiens, PBMC, 24 h), over 50 µM; in experiment [3] (Homo sapiens, PBMC, 24 h), over 50 µM.
As for `C[C@@H](CN)Nc1nc(N)nc2cccnc12` [Example 49, (S)—N^4-(1-aminopropan-2-yl)pyrido[3,2-d]pyrimidine-2,4-diamine], the AC50 in experiment [1] (PBMC) was found to be 22.4 µM; in experiment [2] (PBMC) it was 18.1 µM; in experiment [3] (PBMC) it was 41.6 µM.
